Patent publication US20030166004A1, “Endothelial-cell binding peptides for diagnosis and therapy” (priority 2001, published 2003)

Assays:
HUVEC cells = assay: HUVEC proliferation assay (FGF-stimulated); type: cell-based, human
Description: (§1) We performed proliferation assays to determine the effect of the synthetic EC binding peptides on the proliferation of endothelial cells. In these assays the proliferation of bovine capillary endothelial (BCE), human microvascular endothelial (HMVEC) and human vascular endothelial cells (HUVEC) was stimulated by FGF and VEGF165 as indicated on FIG. 4. The effect of increasing concentration of synthetic EC binding peptides was measured on the proliferation of the stimulated cells. After the 72 h incubation the media was removed, the plates were washed two times with PBS and frozen at −80° C. Proliferation of the BCE cells was accessed using the CyQUANT® fluorescent cell proliferation assay kit according to the manufacturer's recommendations.
(§2) In the MSA-peptide fusions the peptide sequence was inserted into a cysteine constrained loop between amino acids 53 and 62. […]
(§3) The transfected COS7-L cells were cultured in defined serum free media (VP-SFM). […] The concentration of the albumin proteins was determined by Western blot analysis of each preparation using a rabbit anti-MSA antibody and using purified MSA of known concentration to generate a standard curve. Following development of the blot and exposure to film the autoradiographs were analyzed using the Gel Doc 1000 image analysis system and Molecular Analyst software (BioRad).

[1] = system: bovine capillary endothelial cells (BCE); assay: BCE proliferation assay (FGF-stimulated, CyQUANT); type: cell-based; settings: 72 h
Description: as §1, §2
as §3, with “(BioRad). […]” for “(BioRad).”

| Substance | inhibition of HUVEC proliferation (in words, active range) (HUVEC cells) | inhibition of BCE proliferation (in words, active range) [1] |
| --- | --- | --- |
| MSA-myc: MSA with Myc epitope peptide EQKLISEEDL inserted between Glu 57 and Ser 58 (negative control) | did not significantly affect | did not significantly affect |
| MSA: full-length mouse serum albumin (negative control) | did not significantly affect | did not significantly affect |
